Legend:
Saccharomyces cerevisiae = experiment: Inhibition of yeast chitin synthase at 250 uM
[1] = Inhibition of yeast chitin synthase; design: species or system Saccharomyces cerevisiae

Row | inhibition (Saccharomyces cerevisiae) [%] | IC50 [1] [µM] | Compound
1 | 68 | – | CCCCC1(CCCC)OC(c2cc(C)cc(C)c2)=NN1C(C)=O
2 | 69 | – | CCCCC1(CCCC)OC(c2ccc(Cl)cc2)=NN1C(C)=O
3 | 91 | 7.93 | CCCCC1(CCCC)OC(c2ccccc2Cl)=NN1C(C)=O
4 | 86 | 5.6 | CCCCC1(CCCC)OC(c2ccc(Cl)cc2Cl)=NN1C(=O)NC(=O)c1ccccc1Cl
